Test results published in patent publication US12612410B2 (CHILDREN'S HOSPITAL MEDICAL CENTER, priority 2020, dated 2026).

Target: T1, FLT3 (Homo sapiens, UniProt P36888)
T1 sequence (P36888 27-993): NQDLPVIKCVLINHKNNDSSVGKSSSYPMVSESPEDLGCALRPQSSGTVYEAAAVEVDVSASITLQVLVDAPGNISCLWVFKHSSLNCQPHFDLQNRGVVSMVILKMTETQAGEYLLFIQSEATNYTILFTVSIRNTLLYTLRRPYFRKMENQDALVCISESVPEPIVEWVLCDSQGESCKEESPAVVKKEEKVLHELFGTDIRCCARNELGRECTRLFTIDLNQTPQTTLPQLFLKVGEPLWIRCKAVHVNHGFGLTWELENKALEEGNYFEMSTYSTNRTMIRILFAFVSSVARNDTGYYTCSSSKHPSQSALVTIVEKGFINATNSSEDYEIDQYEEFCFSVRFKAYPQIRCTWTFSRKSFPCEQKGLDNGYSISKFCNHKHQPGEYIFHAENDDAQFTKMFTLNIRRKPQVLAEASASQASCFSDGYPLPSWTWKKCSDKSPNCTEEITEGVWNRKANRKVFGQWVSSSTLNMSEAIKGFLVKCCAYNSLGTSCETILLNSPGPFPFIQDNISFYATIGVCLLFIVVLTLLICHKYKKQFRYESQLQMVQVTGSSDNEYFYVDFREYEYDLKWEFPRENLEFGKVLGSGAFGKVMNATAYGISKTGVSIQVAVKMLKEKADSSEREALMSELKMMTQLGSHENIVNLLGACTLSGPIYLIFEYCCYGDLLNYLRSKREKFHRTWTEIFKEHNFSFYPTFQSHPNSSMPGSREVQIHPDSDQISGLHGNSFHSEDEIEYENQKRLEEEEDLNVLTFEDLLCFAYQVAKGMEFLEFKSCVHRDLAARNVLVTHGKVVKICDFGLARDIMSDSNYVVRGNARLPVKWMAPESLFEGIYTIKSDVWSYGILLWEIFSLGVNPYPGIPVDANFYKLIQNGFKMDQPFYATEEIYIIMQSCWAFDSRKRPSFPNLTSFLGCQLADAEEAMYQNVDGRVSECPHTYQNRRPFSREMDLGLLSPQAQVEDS
Assay: DiscoverX KINOMEscan competition binding, FLT3
Design: purchased Reaction Biology (RBC), HotSpot kinase assay

Structure (SMILES)	Kd [nM]
FC(F)(F)C1(c2cn3c(-c4cccc(N[C@@H]5CCNC5)n4)cnc3cn2)CC1 [Compound 10, (R)-N-(pyrrolidin-3-yl)-6-(6-(1-(trifluoromethyl)cyclopropyl)imidazo[1,2-a]pyrazin-3-yl)pyridin-2-amine]	0.38
FC(F)c1cn2c(-c3cccc(N[C@H]4CNC[C@@H]4F)n3)cnc2cn1 [Compound 16, 6-(6-(difluoromethyl)imidazo[1,2-a]pyrazin-3-yl)-N-((3S,4S)-4-fluoropyrrolidin-3-yl)pyridin-2-amine]	0.42
FC(F)c1cn2c(-c3cccc(N[C@H]4CNCC[C@@H]4F)n3)cnc2cn1 [Compound 25, 6-(6-(difluoromethyl)imidazo[1,2-a]pyrazin-3-yl)-N-((3S,4S)-4-fluoropiperidin-3-yl)pyridin-2-amine]	0.13
CC(C)(O)c1cn2c(-c3cccc(N[C@@H]4CCCNC4)n3)cnc2cn1 [Compound 30, (R)-2-(3-(6-(piperidin-3-ylamino)pyridin-2-yl)imidazo[1,2-a]pyrazin-6-yl)propan-2-ol]	1.5
CC(C)(O)c1cn2c(-c3cccc(N[C@H]4CNCC[C@@H]4F)n3)cnc2cn1 [Compound 31, 2-(3-(6-(((3S,4S)-4-fluoropiperidin-3-yl)amino)pyridin-2-yl)imidazo[1,2-a]pyrazin-6-yl)propan-2-ol]	0.55
FC(F)(F)COc1cn2c(-c3cccc(N[C@@H]4CCNC4)n3)cnc2cn1 [Compound 38, (R)-N-(pyrrolidin-3-yl)-6-(6-(2,2,2-trifluoroethoxy)imidazo[1,2-a]pyrazin-3-yl)pyridin-2-amine]	0.61

Compounds with a lower Kd, results first:

Kd [nM]	Structure (SMILES)
0.049	CC1(c2cn3c(-c4cccc(N[C@H]5CNC[C@@H]5F)n4)cnc3cn2)CC1 [Compound 1, N-((3S,4S)-4-fluoropyrrolidin-3-yl)-6-(6-(1-methylcyclopropyl)imidazo[1,2-a]pyrazin-3-yl)pyridin-2-amine]
0.056	CC1(c2cn3c(-c4cccc(N[C@@H]5CCNC5)n4)cnc3cn2)CC1 [Compound 3, (R)-6-(6-(1-methylcyclopropyl)imidazo[1,2-a]pyrazin-3-yl)-N-(pyrrolidin-3-yl)pyridin-2-amine]
0.027	CC1(c2cn3c(-c4cccc(N[C@H]5CNCC56CC6)n4)cnc3cn2)CC1 [Compound 5, (R)-N-(6-(6-(1-methylcyclopropyl)imidazo[1,2-a]pyrazin-3-yl)pyridin-2-yl)-5-azaspiro[2.4]heptan-7-amine]
0.062	F[C@H]1CNC[C@@H]1Nc1cccc(-c2cnc3cnc(C4CC4)cn23)n1 [Compound 50, 6-(6-cyclopropylimidazo[1,2-a]pyrazin-3-yl)-N-((3S,4S)-4-fluoropyrrolidin-3-yl)pyridin-2-amine]
0.035	Cn1cc(-c2cn3c(-c4cccc(N[C@H]5CNC[C@@H]5F)n4)cnc3cn2)cn1 [Compound 52, N-((3S,4S)-4-fluoropyrrolidin-3-yl)-6-(6-(1-methyl-1H-pyrazol-4-yl)imidazo[1,2-a]pyrazin-3-yl)pyridin-2-amine]
